Measured values as given in ChEMBL document CHEMBL3734741, “Pyrazole clubbed triazolo[1,5-a]pyrimidine hybrids as an anti-tubercular agents: Synthesis, in vitro screening and molecular docking study” (Bioorg Med Chem, 2015).
≈ marks a conversion by molar mass, not a printed value.

Experiments:
[1] = system: Mycobacterium tuberculosis; test: Antituberculosis activity against Mycobacterium tuberculosis H37Rv MTCC 300 at 6.25 ug/ml after 4 weeks by Lowenstein-Jensen medium method; format: functional; conditions: H37Rv MTCC 300, 672 h
[2] = Selectivity index, ratio of CC50 for African green monkey Vero cells to IC50 Mycobacterium tuberculosis InhA; format: functional
[3] = Cytotoxicity against African green monkey Vero cells after 72 hrs by MTT assay; format: cell-based; conditions: chlorocebus sabaeus
[4] = system: Mycobacterium tuberculosis; test: Antituberculosis activity against Mycobacterium tuberculosis H37Rv MTCC 300 after 4 weeks by Lowenstein-Jensen medium method; format: functional; conditions: H37Rv MTCC 300, 672 h
[5] = Inhibition of Mycobacterium tuberculosis InhA assessed as conversion of crotonoyl-CoA to butyryl-CoA by spectrophotometric method

Row | Compound | inhibition at 6.25 µg/mL [1] [%] | further results
1 | CC(C)C1=C(C(=O)Nc2ccccn2)C(c2cn(-c3ccccc3)nc2-c2ccccc2)n2ncnc2N1 (stereo not given) | 45 | 
2 | CC1=C(C(=O)Nc2ccc(C)cn2)C(c2cn(-c3ccccc3)nc2-c2ccc(C)cc2)n2ncnc2N1 (stereo not given) | 49 | 
3 | CC1=C(C(=O)Nc2ccc(Br)cn2)C(c2cn(-c3ccccc3)nc2-c2ccc(Cl)cc2)n2ncnc2N1 (stereo not given) | 98 | Ratio CC50/IC50 [2]: 181.81; CC50 at 72 h [3]: 20 µg/mL (≈ 34 µM); MIC [4]: 0.78 µg/mL (≈ 1.33 µM); IC50 [5]: 0.11 µg/mL (≈ 0.187 µM)
4 | NNC(=O)c1ccncc1 [ISONIAZID] |  | MIC [4]: 0.3 µg/mL (≈ 2.19 µM)
5 | CC1=C(C(=O)Nc2ccccn2)C(c2cn(-c3ccccc3)nc2-c2ccc([N+](=O)[O-])cc2)n2ncnc2N1 (stereo not given) | 84 | 
6 | CC1=C(C(=O)Nc2ccccn2)C(c2cn(-c3ccccc3)nc2-c2ccc(C)cc2)n2ncnc2N1 (stereo not given) | 56 | 
7 | CC1=C(C(=O)Nc2ccccn2)C(c2cn(-c3ccccc3)nc2-c2ccc(Cl)cc2)n2ncnc2N1 (stereo not given) | 84 | 
8 | CC(C)C1=C(C(=O)Nc2ccc(Br)cn2)C(c2cn(-c3ccccc3)nc2-c2ccc(F)cc2)n2ncnc2N1 (stereo not given) | 88 | 
9 | CC(C)C1=C(C(=O)Nc2ccc(Br)cn2)C(c2cn(-c3ccccc3)nc2-c2ccc(Cl)cc2)n2ncnc2N1 (stereo not given) | 84 | 
10 | CC1=C(C(=O)Nc2ccc(C)cn2)C(c2cn(-c3ccccc3)nc2-c2ccc(Cl)cc2)n2ncnc2N1 (stereo not given) | 79 | 
11 | Cc1ccc(NC(=O)C2=C(C(C)C)Nc3ncnn3C2c2cn(-c3ccccc3)nc2-c2ccc([N+](=O)[O-])cc2)nc1 (stereo not given) | 68 | 
12 | CC(C)C1=C(C(=O)Nc2ccc(Br)cn2)C(c2cn(-c3ccccc3)nc2-c2ccccc2)n2ncnc2N1 (stereo not given) | 54 | 
13 | Cc1ccc(-c2nn(-c3ccccc3)cc2C2C(C(=O)Nc3ccccn3)=C(C(C)C)Nc3ncnn32)cc1 (stereo not given) | 55 | 
14 | CO[C@H]1/C=C/O[C@@]2(C)Oc3c(C)c(O)c4c(O)c(c(/C=N/N5CCN(C)CC5)c(O)c4c3C2=O)NC(=O)/C(C)=C\C=C\[C@H](C)[C@H](O)[C@@H](C)[C@@H](O)[C@@H](C)[C@H](OC(C)=O)[C@@H]1C [RIFAMPIN] | 99 | MIC [4]: 0.5 µg/mL (≈ 0.608 µM)
15 | CC(C)C1=C(C(=O)Nc2ccccn2)C(c2cn(-c3ccccc3)nc2-c2ccc(Cl)cc2)n2ncnc2N1 (stereo not given) | 81 | 
16 | CC1=C(C(=O)Nc2ccc(Br)cn2)C(c2cn(-c3ccccc3)nc2-c2ccc(F)cc2)n2ncnc2N1 (stereo not given) | 99 | Ratio CC50/IC50 [2]: 181.81; CC50 at 72 h [3]: 20 µg/mL (≈ 35 µM); MIC [4]: 0.39 µg/mL (≈ 0.683 µM); IC50 [5]: 0.11 µg/mL (≈ 0.193 µM)
17 | CC(C)C1=C(C(=O)Nc2ccc(Br)cn2)C(c2cn(-c3ccccc3)nc2-c2ccc([N+](=O)[O-])cc2)n2ncnc2N1 (stereo not given) | 78 | 

Row | Compound | inhibition at 6.25 µg/mL [1] [%] | further results
18 | CC1=C(C(=O)Nc2ccc(C)cn2)C(c2cn(-c3ccccc3)nc2-c2ccc(F)cc2)n2ncnc2N1 (stereo not given) | 86 | 
19 | CC(C)C1=C(C(=O)Nc2ccccn2)C(c2cn(-c3ccccc3)nc2-c2ccc([N+](=O)[O-])cc2)n2ncnc2N1 (stereo not given) | 74 | 
20 | CC1=C(C(=O)Nc2ccc(C)cn2)C(c2cn(-c3ccccc3)nc2-c2ccc([N+](=O)[O-])cc2)n2ncnc2N1 (stereo not given) | 68 | 
21 | Cc1ccc(-c2nn(-c3ccccc3)cc2C2C(C(=O)Nc3ccc(Br)cn3)=C(C(C)C)Nc3ncnn32)cc1 (stereo not given) | 66 | 
22 | CC(C)C1=C(C(=O)Nc2ccccn2)C(c2cn(-c3ccccc3)nc2-c2ccc(F)cc2)n2ncnc2N1 (stereo not given) | 84 | 
23 | Cc1ccc(NC(=O)C2=C(C(C)C)Nc3ncnn3C2c2cn(-c3ccccc3)nc2-c2ccccc2)nc1 (stereo not given) | 42 | 
24 | Cc1ccc(-c2nn(-c3ccccc3)cc2C2C(C(=O)Nc3ccc(C)cn3)=C(C(C)C)Nc3ncnn32)cc1 (stereo not given) | 46 | 
25 | CC1=C(C(=O)Nc2ccccn2)C(c2cn(-c3ccccc3)nc2-c2ccc(F)cc2)n2ncnc2N1 (stereo not given) | 99 | Ratio CC50/IC50 [2]: 125; CC50 at 72 h [3]: 20 µg/mL (≈ 40.6 µM); MIC [4]: 0.78 µg/mL (≈ 1.58 µM); IC50 [5]: 0.16 µg/mL (≈ 0.325 µM)
26 | CC[C@@H](CO)NCCN[C@@H](CC)CO [ETHAMBUTOL] | 99 | MIC [4]: 3.12 µg/mL (≈ 15.3 µM)
27 | CC1=C(C(=O)Nc2ccc(Br)cn2)C(c2cn(-c3ccccc3)nc2-c2ccc(C)cc2)n2ncnc2N1 (stereo not given) | 64 | 
28 | CC1=C(C(=O)Nc2ccc(C)cn2)C(c2cn(-c3ccccc3)nc2-c2ccccc2)n2ncnc2N1 (stereo not given) | 66 | 
29 | Cc1ccc(NC(=O)C2=C(C(C)C)Nc3ncnn3C2c2cn(-c3ccccc3)nc2-c2ccc(F)cc2)nc1 (stereo not given) | 82 | 
30 | CC1=C(C(=O)Nc2ccc(Br)cn2)C(c2cn(-c3ccccc3)nc2-c2ccccc2)n2ncnc2N1 (stereo not given) | 95 | Ratio CC50/IC50 [2]: 29.41; CC50 at 72 h [3]: 25 µg/mL (≈ 45.2 µM); MIC [4]: 3.13 µg/mL (≈ 5.66 µM); IC50 [5]: 0.85 µg/mL (≈ 1.54 µM)
31 | Cc1ccc(NC(=O)C2=C(C(C)C)Nc3ncnn3C2c2cn(-c3ccccc3)nc2-c2ccc(Cl)cc2)nc1 (stereo not given) | 76 | 
32 | CC1=C(C(=O)Nc2ccccn2)C(c2cn(-c3ccccc3)nc2-c2ccccc2)n2ncnc2N1 (stereo not given) | 72 | 
33 | CC1=C(C(=O)Nc2ccc(Br)cn2)C(c2cn(-c3ccccc3)nc2-c2ccc([N+](=O)[O-])cc2)n2ncnc2N1 (stereo not given) | 96 | Ratio CC50/IC50 [2]: 89.28; CC50 at 72 h [3]: 25 µg/mL (≈ 41.8 µM); MIC [4]: 1.56 µg/mL (≈ 2.61 µM); IC50 [5]: 0.28 µg/mL (≈ 0.468 µM)
